Counter-ions that a name gives are not always drawn.
molecular target: T1, human neurokinin-1-receptor (NK1R) (Homo sapiens, UniProt P25103); test: Substance P antagonism assay: 125I-substance P binding to human NK1R expressed in COS or CHO cells; settings: 125I-SP displacement, read-out: IC50 @ NK1R
T1 construct: expressed in transfected cells
Method: To express the cloned human neurokinin-1-receptor (NK1R) transiently in COS, the cDNA for the human NK1R was cloned into the expression vector pCDM9 which was derived from pCDM8 (INVITROGEN) by inserting the ampicillin resistance gene (nucleotide 1973 to 2964 from BLUESCRIPT SK+ (trademark, STRATAGENE, La Jolla, Calif., USA)) into the Sac II site. Transfection of 20 ug of the plasmid DNA into 10 million COS cells was achieved by electroporation in 800 μl of transfection buffer (135 mM NaCl, 1.2 mM CaCl2, 1.2 mM MgCl2, 2.4 mM K2 HPO4, 0.6 mM KH2 PO4, 10 mM glucose, 10 mM N-2-hydroxyethyl-piperazine-N'-2-ethane […] (HEPES) pH 7.4) at 260 V and 950 μF using the IBI GENEZAPPER (trademark IBI, New Haven, Conn., USA). The cells were incubated in 10% fetal calf serum, 2 mM glutamine, 100 U/ml penicillin-streptomycin, and 90% DMEM media (GIBCO, Grand Island, N.Y., USA) in 5% CO2 at 37° C. for three days before the binding assay.
To establish a stable cell line expressing cloned human […], the cDNA was subcloned into the vector pRcCMV (INVITROGEN). Transfection of 20 ug of the plasmid DNA into CHO cells was achieved by electroporation in 800 μl of transfection buffer supplemented with 0.625 mg/ml Herring sperm DNA at 300 V and 950 μF using the IBI GENEZAPPER (IBI). The transfected cells were incubated in CHO media [10% fetal calf serum, 100 U/ml penicillin-streptomycin, 2 mM glutamine, 1/500 hypoxanthine-thymidine (ATCC), 90% IMDM media (JRH BIOSCIENCES, Lenexa, Kans. USA), 0.7 mg/ml G418 (GIBCO)] in 5% CO2 at 37° C. until colonies were visible. Each colony was separated and propagated. The cell clone with the highest number of human NK1R was selected for subsequent applications such as drug screening.
The binding assay of human NK1R expressed in either COS or CHO cells is based on the use of ^125 I-substance P (^125 I-SP, from DU PONT, Boston, Mass.) as a radioactively labeled ligand which competes with unlabeled substance P or any other ligand for binding to the human NK1R. Monolayer cell cultures of COS or CHO were dissociated by the non-enzymatic solution (SPECIALTY MEDIA, Lavellette, N.J.) and resuspended in appropriate volume of the binding buffer (50 mM Tris pH 7.5, 5 mM MnCl2, 150 mM NaCl, 0.04 mg/ml bacitracin, 0.004 mg/ml leupeptin, 0.2 mg/ml BSA, 0.01 mM phosphoramidon) such that 200 μl of the cell suspension would give rise to about 10,000 cpm of specific ^125 I-SP binding (approximately 50,000 to 200,000 cells). In the binding assay, 200 μl of cells were added to a tube containing 20 μl of 1.5 to 2.5 nM of ^125 I-SP and 20 μl of unlabeled substance P or any other test compound. The tubes were incubated at 4° C. or at room temperature for 1 hour with gentle shaking. The bound radioactivity was separated from unbound radioactivity by GF/C filter (BRANDEL, Gaithersburg, Md.) which was pre-wetted with 0.1% polyethylenimine. The filter was washed with 3 ml of wash buffer (50 mM Tris pH 7.5, 5 mM MnCl2, 150 mM NaCl) three times and its radioactivity was determined by gamma counter.

T1 sequence (P25103 whole entry): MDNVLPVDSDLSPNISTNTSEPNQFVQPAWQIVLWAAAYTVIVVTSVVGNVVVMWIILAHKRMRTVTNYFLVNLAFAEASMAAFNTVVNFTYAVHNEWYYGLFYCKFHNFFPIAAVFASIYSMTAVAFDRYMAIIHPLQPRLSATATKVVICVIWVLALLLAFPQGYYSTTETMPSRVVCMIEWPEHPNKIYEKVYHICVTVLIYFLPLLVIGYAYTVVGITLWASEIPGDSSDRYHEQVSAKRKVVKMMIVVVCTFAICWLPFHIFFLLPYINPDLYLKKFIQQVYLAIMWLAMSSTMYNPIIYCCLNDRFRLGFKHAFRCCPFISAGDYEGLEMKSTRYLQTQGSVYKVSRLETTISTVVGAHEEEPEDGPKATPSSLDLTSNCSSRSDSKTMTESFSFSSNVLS

Row | Structure (SMILES) | IC50
1 | FC(C=C1C2CCN(CC2)C1C(c1ccccc1)c1ccccc1)c1cc(C(F)(F)F)cc(C(F)(F)F)c1 (single isomer, unassigned; isomer b) [Example 11, E-3-[Methylene-2-(3,5-bistrifluoromethyl)fluoromethyl]-2-benzhydrylquinuclidine (Isomer B)] | 0.009 µM
2 | OC(C=C1C2CCN(CC2)C1Cc1ccccc1)c1cc(C(F)(F)F)cc(C(F)(F)F)c1 (single isomer, unassigned) [15 (DIASTEREOMER A), E-3-[Methylene-(3,5-bistrifluoromethylphenyl)hydroxymethyl]-2-benzyl quinuclidine] | 0.063 µM
3 | Cc1cccc(C)c1C(O)C=C1C2CCN(CC2)C1C(c1ccccc1)c1ccccc1 (stereo not drawn) [Example 14, E[3-Methylene(2,6-dimethylphenyl)hydroxymethyl]-2-benzhydryl quinuclidine] | 0.09 µM
4 | OC(C=C1C2CCN(CC2)C1C(c1ccccc1)c1ccccc1)c1ccccc1 (single isomer, unassigned) [4 (ISOMER B), E-3-[Methylene(hydroxymethyl)phenyl]-2-benzhydryl quinuclidine] | 0.2 µM
5 | O=C(C=C1C2CCN(CC2)C1C(c1ccccc1)c1ccccc1)c1ccccc1 (stereo not drawn) [Example 8, E-3-[Methyleneketophenyl]-2-benzhydrylquinuclidine] | 0.19 µM
6 | Cc1cc(C)cc(C(=O)C=C2C3CCN(CC3)C2C(c2ccccc2)c2ccccc2)c1 (stereo not drawn) [Example 12, E-3-[Methylene-2-keto(3,5-dimethyl)phenyl]-2-benzhydryl quinuclidine] | 0.14 µM
7 | FC(C=C1C2CCN(CC2)C1C(c1ccccc1)c1ccccc1)c1cc(C(F)(F)F)cc(C(F)(F)F)c1 (single isomer, unassigned; isomer a) [Example 10, E-3-[Methylene-2-(3,5-bistrifluoromethyl)fluoromethyl]-2-benzhydrylquinuclidine (Isomer A) oxalate salt] | 0.005 µM
8 | OC(C=C1C2CCN(CC2)C1C(c1ccccc1)c1ccccc1)c1cc(C(F)(F)F)cc(C(F)(F)F)c1 (single isomer, unassigned) [9 (ISOMER A), E-3-[Methylene-2-(3,5-bistrifluoromethyl)hydroxymethyl]-2-benzhydrylquinuclidine] | 0.0009 µM
9 | OC(C=C1C2CCN(CC2)C1Cc1ccccc1)c1cc(C(F)(F)F)cc(C(F)(F)F)c1 (single isomer, unassigned) [15 (DIASTEREOMER B), E-3-[Methylene-(3,5-bistrifluoromethylphenyl)hydroxymethyl]-2-benzyl quinuclidine] | 0.006 µM
10 | O=C(C=C1C2CCN(CC2)C1C(c1ccccc1)c1ccccc1)c1cc(C(F)(F)F)cc(C(F)(F)F)c1 (stereo not drawn) [Example 7, E-3-[Methylene(3,5-bistrifluoromethylphenyl)oxo]-2-benzhydryl quinuclidine] | > 0.3 µM
11 | FC(F)(F)c1cccc(CC=C2C3CCN(CC3)C2C(c2ccccc2)c2ccccc2)c1 (stereo not drawn) [Example 6, E-3-[Methylene(3-trifluoromethyl)benzyl]-2-benzhydryl quinuclidine] | 0.1 µM

same assay, conditions: IC50 @ NK1R, 125I-SP displacement

Row | Structure (SMILES) | IC50
12 | OC(C=C1C2CCN(CC2)C1C(c1ccccc1)c1ccccc1)c1cccc(C(F)(F)F)c1 (single isomer, unassigned) [3 (ISOMER A), E-3-[Methylene(3-trifluoromethylphenyl)hydroxymethyl]-2-benzyhydryl quinuclidine] | 0.03 µM
13 | Cc1cc(C)cc(C(O)C=C2C3CCN(CC3)C2C(c2ccccc2)c2ccccc2)c1 (stereo not drawn) [Example 13, E-[3-Methylene(3,5-dimethylphenyl)hydroxymethyl]-2-benzhydryl quinuclidine] | 0.013 µM
14 | COc1ccccc1C(O)C=C1C2CCN(CC2)C1C(c1ccccc1)c1ccccc1 (single isomer, unassigned) [1 (ISOMER A)] | 0.05 µM
15 | COc1ccccc1C(O)C=C1C2CCN(CC2)C1C(c1ccccc1)c1ccccc1 (single isomer, unassigned) [1 (ISOMER B)] | 0.13 µM
16 | OC(C=C1C2CCN(CC2)C1C(c1ccccc1)c1ccccc1)c1ccc(F)cc1 (single isomer, unassigned) [2 (ISOMER B), E-[3-[Methylene(4-fluorophenyl)hydroxymethyl]-2-benzhydryl)quinuclidine] | 0.197 µM
17 | C(Cc1ccccc1)=C1C2CCN(CC2)C1C(c1ccccc1)c1ccccc1 (stereo not drawn) [Example 5, E-3-[Methylenebenzyl]-2-benzhydryl quinuclidine] | 0.17 µM
18 | OC(C=C1C2CCN(CC2)C1C(c1ccccc1)c1ccccc1)c1cccc(C(F)(F)F)c1 (single isomer, unassigned) [3 (ISOMER B), E-3-[Methylene(3-trifluoromethylphenyl)hydroxymethyl]-2-benzyhydryl quinuclidine] | 0.11 µM

Source: US5256671A, “Azabicyclic compounds, pharmaceutical compositions containing them and their use in therapy” (Merck Sharp & Dohme, Limited, priority 1992, dated 1993)
